Some test systems named below: DLD-1 colon; DMS 273 small cell lung; LXFL 529 NSCLC; RXF-631 renal; XF 498 CNS; DMS 114 small cell lung; HOP-18 NSCLC; M19-MEL melanoma; OVCAR-5 ovarian; KM20L2 colon; SNB-78 CNS.
Assay in all cases: DTP human tumour cell line panel, 48 h

The structures appear in SMILES notation. Values joined by “and” are separate entries in the source; they are usually repeats but may differ in a detail not shown here. Identical values can stand only once.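 Each compound was tested at five concentrations against cells in 96-well plates for 48 hours. GI50 = concentration required for 50% inhibition of growth. TGI denotes the concentration required for complete inhibition of growth.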 Where a SMILES comes first, the peptide text is derived from it. The star is where a group is joined. Boc = CC(C)(C)OC(=O)*; OBn = c1ccc(CO*)cc1; Bn = c1ccc(C*)cc1 Bounds are passed on as bounds.

The record followed here is PubChem BioAssay (NCI).

By TGI is commonly meant the concentration at which net growth stops. A low value points to greater sensitivity of the cells. For orientation: GI50 means the concentration that inhibits growth by half.

Turning to `C[Si](C)(C)C#C[I+]c1ccccc1`, the TGI with DLD-1 colon is 40.9 µM; in the assay on DMS 273 small cell lung, 44.5 µM; in the assay with LXFL 529 NSCLC, 95.2 µM; in the assay with RXF-631 renal it was above 100 µM; with XF 498 CNS it was above 100 µM; with DMS 114 small cell lung, 39.7 µM. In addition, the TGI was above 100 µM with HOP-18 NSCLC; 83.7 µM with M19-MEL melanoma; above 100 µM with OVCAR-5 ovarian; above 100 µM with KM20L2 colon; above 100 µM in the assay with SNB-78 CNS.

Turning to `CCCCCCCCCCCCCC(=O)OCC1OC(OC)C(NC(=O)N(CCCl)N=O)C(O)C1O` (configuration not stated), the TGI was determined as 81.3 µM in the assay with DLD-1 colon; 47.1 µM in the assay with DMS 273 small cell lung; 38.8 µM in the assay with LXFL 529 NSCLC; 53.9 µM in the assay with RXF-631 renal; 36.7 µM in the assay on XF 498 CNS; 57.3 µM in the assay on DMS 114 small cell lung. The TGI with HOP-18 NSCLC is above 100 µM; in the assay on OVCAR-5 ovarian, 91.1 µM; with KM20L2 colon, 52.2 µM; in the assay on SNB-78 CNS, 90.7 µM.

On to `Cn1cc(C(=O)C2CCCCC2)ccc1=O`, for which the TGI in the assay with DLD-1 colon, with DMS 273 small cell lung, in the assay with RXF-631 renal, in the assay on XF 498 CNS, in the assay on DMS 114 small cell lung and in the assay on OVCAR-5 ovarian was above 100 µM in each case. The TGI with KM20L2 colon and in the assay with SNB-78 CNS was above 100 µM in each case.

`S=C1c2cc(Cl)ccc2NC(=NC2CCCC2)C2CSCN12` (configuration not stated) came in with a TGI in the assay with OVCAR-5 ovarian above 100 µM.

As for `CCCCc1ccc(N2C(=O)c3cc(C)cnc3S2(=O)=O)cc1`, in the assay on OVCAR-5 ovarian, the TGI was above 100 µM.

`CC(C)CC(NC(=O)C(Cc1ccccc1)NC(=O)C(COCc1ccccc1)NC(=O)OC(C)(C)C)C(=O)OCc1ccccc1` (stereo not drawn) (Boc-Ser(Bn)-Phe-Leu-OBn; configuration not given here) showed a TGI with OVCAR-5 ovarian above 100 µM.

In the case of `Cc1nc2c(=O)[nH]c(=O)nc-2n(CCO)c1C`, the TGI with OVCAR-5 ovarian is above 100 µM.

`CC(C)(C)[C@@H]1NC(=O)CN1C(=O)OCc1ccccc1` yielded a TGI in the assay with OVCAR-5 ovarian above 100 µM.

In the assay on OVCAR-5 ovarian, `Nc1nc(Cl)cc(NCC2(CO)CC(CCCCc3ccccc3)C2)n1` (configuration not stated) showed a TGI above 100 µM.

The molecule `NC12c3c4cccc3Oc3cccc(c31)Oc1cccc(c12)O4` had a TGI in the assay with OVCAR-5 ovarian above 50 µM.

`Cc1cccc(Nc2cn(CCOc3ccccc3)c(=O)[nH]c2=O)c1` showed a TGI with OVCAR-5 ovarian above 100 µM.

As for `O=Cc1cc(O)c(O)c(O)c1-c1c(C=O)cc(O)c(O)c1O`, the TGI in the assay with DLD-1 colon, in the assay on DMS 273 small cell lung, in the assay on LXFL 529 NSCLC, in the assay on DMS 114 small cell lung, with HOP-18 NSCLC and with M19-MEL melanoma was above 100 µM each time. The TGI in the assay on OVCAR-5 ovarian, in the assay with KM20L2 colon and with SNB-78 CNS was above 100 µM throughout.

For `CC(=O)NC1C(OCC(=O)NC(C)C(=O)NC(CCC(=O)NCCCCCNc2ccc([N+](=O)[O-])c3[nH]c4ccccc4c(=O)c23)C(N)=O)C(O)C(CO)OC1(C)OCc1ccccc1` (configuration not stated), the TGI in the assay on OVCAR-5 ovarian is above 50 µM.

`N=C(/C=C/c1ccc(-c2cn3cc(/C=C/C(=N)N4CCOCC4)ccc3n2)cc1)N1CCOCC1` showed a TGI in the assay with OVCAR-5 ovarian above 100 µM.

`c1ccc(/C(=N/Nc2cnccn2)c2ncccn2)cc1`: in the assay with OVCAR-5 ovarian, the TGI was above 100 µM.

In turn, `COc1ccc2cc(C(=O)NCCc3ccccc3)ccc2c1OC` registered a TGI in the assay on OVCAR-5 ovarian above 100 µM.

`CCOC(=O)C1(C(=O)OCC)C[C@H]2CON=C2[C@@H]1c1ccc(C(F)(F)F)cc1` showed a TGI with OVCAR-5 ovarian above 100 µM.

With `CCOC(=O)Nc1ccc(S(=O)(=O)Nc2ccc(Br)cc2)cc1`, in the assay on OVCAR-5 ovarian, the TGI was above 100 µM.

Regarding `CC(=O)OC(C)(C)C1CCC(C)(C(O)COc2ccc(CCNC(=O)c3ccccc3)cc2)O1` (configuration not stated), the TGI with DLD-1 colon is above 100 µM; in the assay on DMS 273 small cell lung it was above 100 µM; with LXFL 529 NSCLC, above 100 µM; in the assay on XF 498 CNS, 33.4 µM; in the assay on DMS 114 small cell lung, 62.2 µM; with HOP-18 NSCLC, above 100 µM. Besides, the TGI in the assay with M19-MEL melanoma, with OVCAR-5 ovarian, in the assay on KM20L2 colon and in the assay on SNB-78 CNS was above 100 µM throughout.

Take `CCc1nnc2sc(-c3ccc(-c4ccc(Cl)cc4Cl)o3)nn12`: in the assay with OVCAR-5 ovarian, the TGI was above 100 µM.

Take `CC(=O)C1=CC=C/C1=N\Nc1ccccc1`: the TGI in the assay on OVCAR-5 ovarian came to 19.7 µM.

In turn, `CCC1=C(C)C2=NC1=CC1=NC(=C(CC)/C1=C/O)C=C1N=C3C(=C1C)C(=O)C(C(=O)OC)C3=C1NC(=C2)C(C)C1CCC(=O)OC` (configuration not stated) came in with a TGI in the assay with OVCAR-5 ovarian above 100 µM.

`c1ccc(COc2nc3ccc(C45CC6CC(CC(C6)C4)C5)cc3[nH]2)cc1`: the TGI with OVCAR-5 ovarian was above 100 µM.

For `Cn1c2ccccc2n2c(=O)c(-c3ccc(O)cc3)nnc12`, the TGI with OVCAR-5 ovarian was above 100 µM.

`COC(=O)c1nc2c(C)c(O)c(O)c([C@H](C)CCC=C(C)C)c2o1` returned a TGI in the assay on OVCAR-5 ovarian above 100 µM.

The molecule `Cc1cc(SCC(=O)c2ccc(Br)cc2)cc(C)[o+]1` came in with a TGI in the assay on OVCAR-5 ovarian of 69.9 µM. This counts as double-digit micromolar.

`COC(=O)CP1(=O)OC2C(C3CCC2(C)C3(C)C)N1c1cc(C(F)(F)F)cc(C(F)(F)F)c1` (configuration not stated) gave a TGI in the assay on OVCAR-5 ovarian above 100 µM.

For `CC(C)C[C@H](NC(=O)[C@@H](Cc1cccc2ccccc12)NC(=O)N1CCOCC1)B(O)O`, the total growth inhibition concentration (TGI) with OVCAR-5 ovarian came to 13.5 µM. In other words, the double-digit micromolar range.

In turn, `N#CC(C(=O)c1ccccc1F)c1nc2cc(C(F)(F)F)ccc2s1` (configuration not stated) displayed a total growth inhibition concentration (TGI) with OVCAR-5 ovarian of 89.6 µM.

For `COc1ccc2c(c1)CC[C@@H]1C2CC[C@]2(C)OC(=O)CCC12` (some centres not stated), the concentration for total growth inhibition (TGI) in the assay with OVCAR-5 ovarian was 30.9 µM.

In the case of `CC(=O)c1ccc2c(c1)CC1(C2)Cc2cc3c(cc2C1)C(=O)CC3` (configuration not stated), the TGI with OVCAR-5 ovarian is above 100 µM.

On to `CC(=O)OCC1OC(n2c(-c3ccccc3)c(N=Nc3ccc(Cl)cc3)c(C)c(C#N)c2=S)C(OC(C)=O)C(OC(C)=O)C1OC(C)=O` (configuration not stated), for which, in the assay on OVCAR-5 ovarian, the GI50 is 15.7 µM and > 100 µM; the TGI was 30.6 µM and > 100 µM.

For the molecule `C=C1C(=O)O[C@H]2C1C[C@@H](O)[C@@]1(C)OC1CC[C@@]1(C)O[C@H]21` (some centres not stated), in the assay on OVCAR-5 ovarian, the TGI worked out at 63.9 µM. This lies in the double-digit micromolar range.
